# From patent publication US20060252698A1, “Compounds for inhibiting cathepsin activity” (priority 2005, published 2006)
# pKi: −log10 of the molar value. Starred links: 1 amine or outer side, 2 acyl side, 3 side chain; linkers in the order of their positions; H or OH if unused. Non-standard residues stand in square brackets, D forms with d. Residues, ends and D or L forms follow the SMILES beside them. *: point of attachment. Pro(3S,4R-methano) = O=C(O)[C@H]1NC[C@@H]2C[C@@H]21; Isobutyloxycarbonyl = CC(C)COC(=O)*; X3 = C=CCCC(N[*:1])C(=O)C(=O)[*:2]; X2 = CCCC(N[*:1])C(=O)C(=O)[*:2]; Chg = N[CH](C(=O)O)C1CCCCC1; Phg = N[CH](C(=O)O)c1ccccc1; Boc = CC(C)(C)OC(=O)*
# Target: T1, Human Liver Cathepsin L (Homo sapiens, UniProt P07711)
# T1 construct: purchased Calbiochem 219402
# Assay: Cathepsin L inhibition assay (kinetic, Z-Phe-Arg-pNA substrate)
# Type: biochemical
# Conditions: Z-Phe-Arg-pNA 120 μM, enzyme 12 nM, pH 5.5, read at 410 nm
# Description: Cathepsin Assay Protocols:
# • 1. 96-well Round or V-bottom microplates for dilutions • 2. 96-well COSTAR UV microplates for assay (COSTAR cat.#3635) • 3. Bio-Spin 6 Chromatography Columns (BIO-RAD cat.#732-6002). • 4. 12-75 mm test tubes • 5. Falcon 50 ml tubes • 6. Falcon 14 ml tubes • 7. 1.5 ml eppendorf tube • 8. ≦10 ml buffer reservoir Reagents: • 1. Enzyme: Cathepsin G, M.W.23,500, 10 μM stock. • 2. Substrate:Suc-Ala-Ala-Pro-Phe-pNA, M.W. 624.65, prep. 100 mM [62.465 mg/ml] stock. • 3. Buffer: [50 mM HEPES, 500 mM NaCl, 5 μM EDTA, pH 7.14], 5 μM DTT Instrument Settings: SpectraMax Plus • 1. Kinetic assay reading@405 nm • 2. Read interval: 30 seconds • 3. Time: 1 hour • 4. OD Min: −0.001 • 5. OD Max: 0.5 • 6. Data Mode: Absorbance • 7. e405=194.078 μM/O.D. Procedure: • 1. Add 73 μl of buffer to all wells. • 2. Add […] of buffer to (−E) controls. • 3. Add 7 μl of sample and/or DMSO for controls to appropriate wells. • 4. Prep. substrate: 100 mM (62.465 mg/ml) stock in 100% DMSO. • 5. Dilute 1:20 in buffer. 75 μl in 1.425 ml. 5 mM final. • 6. Add 20 μl of 5 mM substrate to all wells. 500 μM final. • 7. Dilute enzyme (1:50) in buffer; Add 120 μl to 5,880 μl buffer. 2×[200 nM] final. • 8. Add 100 μl of 2× [200 nM] enzyme to assigned wells, except (−E) controls. [100 nM] final. • 11. Vortex 20 seconds. Read@ 405 nM every 30 seconds for 1 hour on SpectraMax Plus • Endpoint assay reading plate@ 600 nM. Used for the detection of precipitation. Cathepsin H: Materials: • 1. 96-well Round or V-bottom microplates for dilutions • 2. 96-well COSTAR UV microplates for assay (COSTAR cat.#3635) • 3. Bio-Spin 6 Chromatography Columns (BIO-RAD cat.#732-6002) • 4. 12-75 mm test tubes • 5. Falcon 50 ml tubes • 6. Falcon 14 ml tubes • 7. 1.5 ml eppendorf tube • 8. ≧10 ml buffer reservoir Reagents: • 1. Enzyme: Cathepsin H, M.W.28,000, 9.07 μM stock. • 2. Substrate:H-Arg-pNA, M.W. 367.2, prep. 50 mM [18.36 mg/ml] stock. • 3. Buffer: [100 mM NaP04, 1 mM EDTA, 1 mM DTT, pH 6.5 Instrument Settings: SpectraMax Plus • 1. Kinetic assay reading@410 nM • 2. Read interval: 30 seconds • 3. Time: 1 hour • 4. OD Min: −0.001 • 5. OD Max: 0.05 • 6. Data Mode: Absorbance • 7. e410=188.415 μM/O.D. Km=108±5 μM Procedure: • 1. Prep. substrate: 50 mM (18.36 mg/ml) stock in 100% DMSO. • 2. Add 73 μl of buffer to all wells. • 3. Add 7 μl of sample to appropriate wells: a.) 100% DMSO for (+E) & (−E) controls. • 4. Add 100 μl of buffer to (−E) controls. • 5. Dilute substrate (1:20) in buffer; Add 140 μl to 2.66 ml buffer while vortexing. [2.5 mM] final. • 6. Add 20 μl of substrate to all wells. Vortex 3-5 seconds. [250 μM] final. • 7. Dilute enzyme (1:64.8) in buffer; Add 179 μl to 11.418 ml buffer. 2× [140 nM] final. • 8. Add 100 μl of 2× [140 nM] enzyme to assigned wells, except (−E) controls. [70 nM] final. • 9. Read@410 nM every 30 seconds for 1 hour on SpectraMax Plus Cathepsin L: Materials: • 1. 96-well Round or V-bottom microplates for dilutions • 2. 96-well COSTAR UV microplates for assay (COSTAR cat.#3635) • 3. Falcon 50 ml tubes • 4. Falcon 14 ml tubes • 5. 1.5 ml eppendorf tube • 6. 10 ml buffer reservoir Reagents: • 1. Enzyme: Calbiochem #219402: Cathepsin L, M.W.29,000, 11.62 μM stock. Lot#B45683 • 2. Substrate: Bachem #L-1242: Z-Phe-Arg-pNA, M.W. 612.09, prep. 4.8 mM [2.938 mg/ml] stock in 100% DMSO. • 3. Buffer: [100 mM NaP04, 1 mM EDTA, pH 5.5] Supplement buffer w/1 mM DTT, day of assay. Experiment #1: • Instrument settings: SpectraMax Plus microtiter plate reader (Molecular Devices, Sunnydale, Calif.) • 1. Kinetic assay reading@410 nM • 2. Read interval: 30 seconds • 3. Time: 1 hour • 4. OD Min: −0.001 • 5. OD Max: 0.05 • 6. Data Mode: Absorbance • 7. ε410=161.311 μM/O.D. Km=56±8 μM Procedure: • 1. Add 88 μl of buffer to all wells. • 2. Add 7 μl of sample or 100% DMSO to appropriate wells. • 3. Add 100 μl of buffer to (−E) controls. • 5. Add 5 μ 4.8 mM] substrate to all wells. [120 μM] final. • 6. Vortex 3-5 seconds. • 7. Dilute enzyme (1:483.87) in buffer; Add 24.8 μl to 12,000 μl buffer. 2×[24 nM] final. • 8. […]
# T1 sequence (P07711 114-288 limits assumed): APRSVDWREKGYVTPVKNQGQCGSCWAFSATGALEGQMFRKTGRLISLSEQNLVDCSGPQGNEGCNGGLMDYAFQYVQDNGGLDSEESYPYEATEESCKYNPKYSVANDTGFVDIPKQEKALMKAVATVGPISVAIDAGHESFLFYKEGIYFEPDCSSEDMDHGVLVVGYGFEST
# T1 sequence (P07711 292-333 limits assumed): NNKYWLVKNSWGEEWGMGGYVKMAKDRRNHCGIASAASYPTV
row,pKi,SMILES
1,7.42,COc1ccc2c(O[C@@H]3C[C@H]4C(=O)N[C@]5(C(=O)O)CC5/C=C\CCCCC[C@H](NC(=O)OC5CCCC5)C(=O)N4C3)cc(-c3csc(NC(C)C)n3)nc2c1 (some centres unmarked)
2,8.15,CCCC[C@H](NC(=O)[C@@H]1[C@@H]2[C@H](CN1C(=O)[C@@H](NC(=O)NC1(CS(=O)(=O)C(C)(C)C)CCCCC1)C(C)(C)C)C2(C)C)C(=O)C(=O)NC1CC1 [drawing 652]
3,6.85,C=CCNC(=O)C(=O)[C@H](CCCC)NC(=O)[C@@H]1[C@@H]2[C@H](CN1C(=O)[C@@H](NC(=O)NC1([C@H]3CCCS3(=O)=O)CCCCC1)C(C)(C)C)C2(C)C [drawing 681]
4,7.12,CC(C)(C)NC(=O)N[C@H](C(=O)N1C[C@H]2[C@@H]([C@H]1C(=O)NC(CC1CCC1)C(=O)C(N)=O)C2(C)C)C(C)(C)C (some centres unmarked)
5,6.57,"C=CCCC(NC(=O)[C@@H]1[C@H]2C[C@H]2CN1C(=O)[C@@H](NC(=O)OC(C)(C)C)C1CCCCC1)C(=O)C(=O)NCC(=O)N[C@H](C(=O)N(C)C)c1ccccc1 (stereo partly drawn) (Boc-[Chg][Pro(3S,4R-methano)][X3]G[Phg]-NMe2)"
6,7.60,CC(C)C[C@@H](C(=O)NC(CC1CC1)C(=O)C(N)=O)C1CCCCCC[C@H](NC(=O)OC(C)(C)C)C1=O (some centres unmarked)
7,8.70,CCCC(NC(=O)C(CC(C)C)NC(=O)C(NC(=O)OCC(C)C)C1CCCCC1)C(=O)C(=O)NCC(=O)NC(C(N)=O)c1ccccc1 (centres unmarked) (Isobutyloxycarbonyl-[Chg]L[X2]G[Phg]-NH2; configuration not given here)
8,8.32,CC(=O)N[C@@H](CC(C)C)C(=O)N[C@@H](CC(C)C)C(=O)N[C@H](C=O)CCCNC(=N)N [drawing 710]
9,7.85,CC(C)(C)OC(=O)N[C@H](C(=O)N1CC2CCCC2[C@H]1C(=O)NC(CC1CC1)C(=O)C(N)=O)C1CCCCC1 (some centres unmarked)
10,7.20,CC1(C)C2CN(C(=O)[C@@H](NC(=O)NC3CCCCC3)C(C)(C)C)[C@H](C(=O)NC(CC3CCC3)C(=O)C(N)=O)C21 (some centres unmarked)
11,7.42,CCCC[C@H](NC(=O)[C@@H]1[C@@H]2[C@H](CN1C(=O)[C@@H](NC(=O)NC1(CS(=O)(=O)C(C)C)CCCCC1)C(C)(C)C)C2(C)C)C(=O)C(=O)NC1CC1
12,8.05,CC(=O)N[C@@H](CC(C)C)C(=O)N[C@@H](CC(C)C)C(=O)N[C@H](C=O)CCCNC(=N)N [drawing 687]
13,6.26,CC(C)(C)OC(=O)N[C@H]1CCCCCCCC[C@@H](C(=O)C(N)=O)NC(=O)[C@@H]2[C@@H]3[C@H](CN2C1=O)C3(C)C
14,7.70,CC(C)(C)OC(=O)N[C@H](C(=O)N1c2ccccc2C[C@H]1C(=O)NC(CC1CC1)C(=O)C(N)=O)C1CCCCC1 (some centres unmarked)
15,8.72,CC(=O)N[C@@H](CC(C)C)C(=O)N[C@@H](CC(C)C)C(=O)N[C@H](C=O)CCCNC(=N)N [drawing 688]
16,6.92,CC1C[C@H]2CN(C(=O)[C@@H](NC(=O)OC(C)(C)C)C3CCCCC3)[C@H](C(=O)NC(CC3CC3)C(=O)C(=O)NCC(=O)N[C@H](C(=O)N(C)C)c3ccccc3)[C@H]2C1 (some centres unmarked)

row,pKi,SMILES
1,7.92,CC1([C@H](NC(=O)NC2(CS(=O)(=O)C(C)(C)C)CCCCC2)C(=O)N2C[C@H]3[C@@H]([C@H]2C(=O)N[C@@H](CCC2CC2)C(=O)C(=O)NC2CC2)C3(C)C)CCCCC1
2,7.10,CCCC(NC(=O)[C@@H]1Cc2ccc3cc2CN1C(=O)[C@H](C1CCCCC1)NC(=O)CCCCCCO3)C(=O)C(N)=O (some centres unmarked)
3,7.35,C=CCNC(=O)C(=O)[C@H](CCC1CC1)NC(=O)[C@@H]1[C@@H]2[C@H](CN1C(=O)[C@@H](NC(=O)NC1(CS(=O)(=O)C(C)(C)C)CCCCC1)C(C)(C)C)C2(C)C [drawing 670]
4,7.96,CCCC[C@H](NC(=O)[C@@H]1[C@@H]2[C@H](CN1C(=O)[C@@H](NC(=O)NC1(CS(=O)(=O)C(C)(C)C)CCCCC1)C1(C)CCCCC1)C2(C)C)C(=O)C(=O)NC1CC1
5,6.96,CN(C[C@@H](NC(=O)N[C@H](C(=O)N1C[C@H](OC(C)(C)C)C[C@H]1C(=O)NC(CC1CCC1)C(=O)C(N)=O)C1CCCCC1)C(C)(C)C)S(C)(=O)=O (some centres unmarked)
6,7.00,CCC1C[C@]1(NC(=O)[C@@H]1C[C@H](Oc2cc(-c3ccccc3)nc3cc(OC)ccc23)CN1C(=O)[C@@H](NC(=O)OC(C)(C)C)C(C)C)C(=O)O (some centres unmarked)
7,6.98,CCC[C@H](NC(=O)[C@@H]1[C@H]2CCC[C@H]2CN1C(=O)[C@@H](NC(=O)[C@@H](NC(=O)c1cnccn1)C1CCCCC1)C(C)(C)C)C(=O)C(=O)NC1CC1
8,7.40,CCCC[C@H](NC(=O)[C@@H]1[C@@H]2[C@H](CN1C(=O)[C@@H](NC(=O)NC1([C@H]3CCN(C)S3(=O)=O)CCCCC1)C(C)(C)C)C2(C)C)C(=O)C(=O)NC1CC1
9,6.92,CC(C)C[C@@H](C(=O)NC(CC1CCC1)C(=O)C(N)=O)N1CCCCCC[C@H](NC(=O)N[C@@H](C(=O)OC(C)C)C(C)(C)C)C1=O (some centres unmarked)
10,7.70,C=CCNC(=O)C(=O)C(CC1CC1)NC(=O)[C@@H]1[C@@H]2[C@H](CN1C(=O)[C@@H](NC(=O)N[C@H](CN1C(=O)CC(C)(C)CC1=O)C(C)(C)C)C(C)(C)O)C2(C)C (some centres unmarked)
11,6.66,CC(C)(C)OC(=O)N[C@H](C(=O)N1C[C@H]2[C@@H]([C@H]1C(=O)NC(CC1CC1)C(=O)C(N)=O)C(C)(C)C2(C)C)C1CCCCC1 (some centres unmarked)
12,6.60,CC1(C)CC(=O)N(C[C@@H](NC(=O)N[C@H]2CCCCCCCCC[C@@H](C(=O)C(=O)NC3CC3)NC(=O)[C@@H]3[C@@H]4[C@H](CN3C2=O)C4(C)C)C(C)(C)C)C(=O)C1
13,7.70,CCCC[C@H](NC(=O)[C@@H]1[C@@H]2[C@H](CN1C(=O)[C@@H](NC(=O)NC1([C@H]3CCCS3(=O)=O)CCCCC1)C1(C)CCCCC1)C2(C)C)C(=O)C(=O)NC1CC1
14,6.46,C=CCNC(=O)C(=O)C(CC1CC1)NC(=O)[C@@H]1[C@H]2C(c3ccccc3)[C@H]2CN1C(=O)[C@@H](NC(=O)NC1(CS(=O)(=O)C(C)(C)C)CCCCC1)C(C)(C)C (some centres unmarked)
15,7.70,CCCC(NC(=O)[C@H](CC(C)C)NC(=O)C(NC(=O)OC(C)(C)C)C(C)(C)C)C(=O)C(N)=O (some centres unmarked)
16,6.43,C=CCNC(=O)C(=O)[C@@H]1CCCCCCCCC[C@H](NC(=O)N[C@H](CN(C)S(=O)(=O)N(C)C)C(C)(C)C)C(=O)N2C[C@H]3[C@@H]([C@H]2C(=O)N1)C3(C)C
